Test results reported in patent US12544375B2, “Small molecule therapeutic for parkinson's disease paired with a biomarker of therapeutic activity” (The Board of Trustees of the Leland Stanford Junior …, priority 2019, dated 2026).

Target: T1, Myc-Miro1-7A (Homo sapiens, UniProt Q8IXI2, D530A/K427A/K454A/K528A/N428A/Q446A/S432A)
T1 construct: expressed in transfected cells; host or cells: human skin fibroblasts Healthy-1 and PD-2 (Lipofectamine 2000)
Assay: Drug-resistant mutant Myc-Miro1-7A expressed in fibroblasts, immunostaining
Format: cell-based
Conditions: expressed in PD-2 fibroblasts, CCCP treatment
Experimental: FIG. 2A-FIG. 2F. Miro1 Reducer Eliminates the Miro1 Defect in PD Fibroblasts. (FIG. 2A) Chemical properties of Miro1 Reducer. (FIG. 2B) Wild-type flies (w^1118) were fed with DMSO alone (0 μM Miro1 Reducer) or Miro1 Reducer in DMSO at 250 μM for 7 days, and lysed and blotted as indicated. The band intensities are normalized to those of Tubulin from the same blots. n=4. (FIG. 2C-FIG. 2E) Fibroblasts were treated, lysed, and blotted as indicated. (FIG. 2C) Band intensities are normalized to those of GAPDH from the same blots and compared to “Healthy-1, no treatment” except otherwise indicated. n=4. (FIG. 2D) Band intensities are normalized to those of ATP5β from the same blots and expressed as a percentage of the mean of “0 μM Miro1 Reducer with CCCP”. Mean±S.E.M is shown. n=3. (FIG. 2E) Band intensities are normalized to those of GAPDH from the same blots and compared to “Healthy-1, no CCCP, no MG132” except otherwise indicated. n=4. (FIG. 2F) Healthy-1 and PD-2 fibroblasts were transfected as indicated, and immunostained with anti-Myc (Miro1, green) and stained with Dapi (blue). The Miro1 intensity is normalized to that of mito-dsRed from the same cell and quantified across 37-62 cells from 5 fields each transfection, 3 independent transfections. Scale bars: 50 μm. For (FIG. 2C-FIG. 2F), both CCCP and Miro1 Reducer were dissolved in DMSO. […]

T1 sequence (Q8IXI2 whole entry K427A/N428A/S432A/Q446A/K454A/K528A/D530A): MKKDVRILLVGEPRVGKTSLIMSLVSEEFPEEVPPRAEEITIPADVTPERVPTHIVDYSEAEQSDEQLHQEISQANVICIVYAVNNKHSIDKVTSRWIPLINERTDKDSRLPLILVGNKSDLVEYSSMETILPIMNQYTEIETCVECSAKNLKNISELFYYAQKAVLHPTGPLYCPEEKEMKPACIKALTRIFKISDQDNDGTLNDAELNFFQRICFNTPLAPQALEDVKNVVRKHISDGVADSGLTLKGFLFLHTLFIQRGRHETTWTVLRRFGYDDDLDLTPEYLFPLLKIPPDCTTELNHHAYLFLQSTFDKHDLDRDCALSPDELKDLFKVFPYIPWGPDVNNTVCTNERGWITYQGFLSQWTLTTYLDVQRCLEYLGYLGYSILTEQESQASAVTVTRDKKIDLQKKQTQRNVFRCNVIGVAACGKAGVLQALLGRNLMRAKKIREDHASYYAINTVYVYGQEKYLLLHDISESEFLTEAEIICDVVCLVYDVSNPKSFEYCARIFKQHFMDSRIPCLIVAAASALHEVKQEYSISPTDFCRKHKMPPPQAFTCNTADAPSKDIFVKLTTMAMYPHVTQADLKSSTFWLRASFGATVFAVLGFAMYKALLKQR

O=C(Nc1ccc(Nc2cc(-n3ccnc3)ncn2)cc1)Nc1cccc(F)c1 [Miro1 Reducer]
response of mutant Myc-Miro1-7A to compound: failed to respond
